Experiments:
isolated rat hearts [1] = assay: Isolated working rat heart, aerobic perfusion: cardiac function and efficiency; design: Cardiac Work (CO · PSP): unit not given beside the values; conditions: aerobically perfused, DCA 2 mM, diltiazem 0.8 μM, digoxin 3 nM, metoprolol 1 μM, dobutamine 1 μM
Protocol: (§1) Rat hearts were cannulated for isolated working heart perfusions as described in “An imbalance between glycolysis and glucose oxidation is a possible explanation for the detrimental effects of high levels of fatty acids during aerobic reperfusion of ischemic hearts.”, (J Pharmacol Exp Ther. 264:135 (1993); herein incorporated by reference. In brief, male Sprague-Dawley rats (0.3-0.35 kg) were anesthetized with pentobarbital sodium (60 mg/kg IP) and hearts were quickly excised, the aorta was cannulated and a retrograde perfusion at 37° C. was initiated at a hydrostatic pressure of 60 mm Hg. Hearts were trimmed of excess tissue, and the pulmonary artery and the opening to the left atrium were then cannulated. After 15 min of Langendorff perfusion, hearts were switched to the working mode by clamping the aortic inflow line from the Langendorff reservoir and opening the left atrial inflow line. The perfusate was delivered from an oxygenator into the left atrium at a constant preload pressure of 11 mm Hg. Perfusate was ejected from spontaneously beating hearts into a compliance chamber (containing 1 ml of air) and into the aortic outflow line. The afterload was set at a hydrostatic pressure of 80 mm Hg. All working hearts were perfused with Krebs'-Henseleit solution containing calcium 2.5 mmol/L, glucose 5.5 mmol/L, 3% bovine serum albumin (Fraction V, Boehringer Mannheim), and with 1.2 mmol/L palmitate. Palmitate was bound to the albumin as described previously (Saddik M., et al. J Biol. Chem. 267:3825-3831 (1992)). The perfusate was recirculated, and pH was adjusted to 7.4 by bubbling with a mixture containing 95% O2 and 5% CO2. For the aerobic model hearts, all tested compounds were introduced into the heart 5 minutes into the working mode following Langendorff Perfusion.
Spontaneously beating hearts were used in all perfusions. Heart rate and aortic pressure were measured with a Biopac Systems Inc. blood pressure transducer connected to the aortic outflow line. Cardiac output and aortic flow were measured with Transonic T206 ultrasonic flow probes in the preload and afterload lines, respectively. Coronary flow was calculated as the difference between cardiac output and aortic flow. The O2 contents of the perfusate entering and leaving the heart were measured using YSI™ micro oxygen electrodes placed in the preload and pulmonary arterial lines, respectively. Myocardial O2 consumption (MVO2) was calculated according to the Fick principle, using coronary flow rates and the arteriovenous difference in perfusate O2 concentration. Cardiac work was calculated as the product of systolic pressure and cardiac output. Cardiac efficiency was defined as a ratio of cardiac work to MVO2.

isolated rat hearts [2] = assay: Isolated working rat heart, aerobic perfusion: glycolysis and glucose oxidation; design: glycolytic rates (glycolysis) / glucose oxidation rates: unit not given here; conditions: normal hearts, aerobic; FIG. 2, 4, 6, 8; control 3.430±0.604; DCA 2 mM, digoxin 3 nM, diltiazem 0.8 μM, dobutamine 1 μM, metoprolol 1 μM
Protocol: as §1
Glycolysis and glucose oxidation were measured simultaneously by perfusing hearts with [5-^3H/U-^14C] glucose (Liu H., et al. Am J Physiol. 270:H72-H80 (1996); Taegtmeyer Het al. Am J Cardiol. 80:3A-10A (1997)). The total myocardial ^3H2O production and ^14CO2 production were determined at 10 minute intervals for the entirety of the aerobic period, 60 minutes for normal hearts and 30 minutes for the global ischemia and low flow demand ischemia models. In the global ischemia model, the total myocardial ^3H2O and ^14CO2 production were determined at 20 minute intervals for the 60 minute reperfusion period. In the low flow demand ischemia model, the total myocardial ^3H2O and ^14CO2 production were determined at 10 minute intervals for the 30 minute reperfusion period. Glucose oxidation rates were determined by quantitative measurement of ^14CO2 production as described previously (Barbour R. L., et al. Biochemistr. 1923:6503-6062 (1984)).

[3] = tested on: isolated rat hearts subjected to low flow demand ischemia; assay: Isolated working rat heart, low flow demand ischemia: cardiac function and efficiency; conditions: for Aortic Outflow / Cardiac Output / Coronary Flow / HR × PSP / Heart Rate / Peak Systolic Pressure: DCA 2 mM, diltiazem 0.8 μM, metoprolol 1 μM
Protocol: Hearts were trimmed of excess tissue, and the pulmonary artery and the opening to the left atrium were then cannulated. After 15 min of Langendorff perfusion, hearts were switched to the working mode by clamping the aortic inflow line from the Langendorff reservoir and opening the left atrial inflow line. The perfusate was delivered from an oxygenator into the left atrium at a constant preload pressure of 11 mm Hg. […] The afterload was set at a hydrostatic pressure of 80 mm Hg. […] Palmitate was bound to the albumin as described previously ([…]., et al. J Biol. Chem. 267:3825-3831 (1992)). […] For the aerobic model hearts, all tested compounds were introduced into the heart 5 minutes into the working mode following Langendorff Perfusion. Spontaneously beating hearts were used in all perfusions. Heart rate and aortic pressure were measured with a Biopac Systems Inc. blood pressure transducer connected to the aortic outflow line. Cardiac output and aortic flow were measured with Transonic […] ultrasonic flow probes in the preload and afterload lines, respectively. Coronary flow was calculated as the difference between cardiac output and aortic flow. […] Cardiac work was calculated as the product of systolic pressure and cardiac output. Cardiac efficiency was defined as a ratio of cardiac work to MVO2. […] All tested compounds were introduced into the perfusate five minutes into initiation of aerobic perfusion.

[4] = tested on: isolated rat hearts subjected to low flow demand ischemia; assay: Isolated working rat heart, low flow demand ischemia: glycolysis and glucose oxidation; conditions: FIG. 22, FIG. 28
[5] = low flow ischemia: aerobic period
[6] = low flow ischemia: ischemic period

## COc1ccc([C@@H]2Sc3ccccc3N(CCN(C)C)C(=O)[C@@H]2OC(C)=O)cc1 [Diltiazem, diltiazem]
Isolated rat hearts [1]
  Aortic Outflow: 21 ± 1 mL/min
  Cardiac Efficiency (CW · O2^−1): 1.63 ± 0.37
  Cardiac Output: 41 ± 1 mL/min
  Cardiac Work (CO · PSP): 51 ± 1
  Coronary Flow: 20 ± 1 mL/min
  HR × PSP: 25 ± 1 beats · min^−1 · mmHg · 10^−2
  Heart Rate: 202 ± 3 beats · min^−1
  O2 Consumption: 38 ± 9 μmolO2 · g dry wt^−1 · min^−1
  Peak Systolic Pressure: 127 ± 4 mmHg
Isolated rat hearts [1]; listed as diltiazem
  Aortic Outflow: 21 ± 1 mL/min
  Cardiac Work (CO · PSP): 51±1
  HR × PSP: 25±1 beats · min^−1 · mmHg · 10^−2
  Heart Rate: 202±3 beats · min^−1
Isolated rat hearts [2]
  glycolytic rates (glycolysis): 0.727±0.160
[3]; low flow demand ischemia, Table 1
  peak systolic pressure, effect in words: decreased
[3]; [5]
  Aortic Outflow: 22 ± 1 mL/min
  Cardiac Output: 43 ± 1 mL/min
  Coronary Flow: 21 ± 1 mL/min
  HR × PSP: 28 ± 1 beats · min^−1 · mmHg · 10^−2
  Heart Rate: 215 ± 6 beats · min^−1
  Peak Systolic Pressure: 131 ± 6 mmHg
[3]; [6]
  Aortic Outflow: 11 ± 4 mL/min
  Cardiac Output: 24 ± 4 mL/min
  Coronary Flow: 13 ± 1 mL/min
  HR × PSP: 28 ± 1 beats · min^−1 · mmHg · 10^−2
  Heart Rate: 215 ± 6 beats · min^−1
  Peak Systolic Pressure: 131 ± 6 mmHg
[3]; low-flow ischemic period, FIG. 23, FIG. 29
  cardiac function, in words: Neither diltiazem, DCA, nor DCA with diltiazem significantly affected
[4]
  glycolysis, in words: some attenuation
